Results published in patent US9156816B2 (priority 2010, dated 2015).

Columns and labels:
[1] = tested on: Pythium aphanidermatum; assay: Antimicrobial test (mycelia growth inhibition); type: cell-based; details: compound concentration of 1 ppm, PSY medium, 25° C., days 3 to 7 of culturing, read-out: mycelia growth inhibition rate
Protocol: The compound according to the present invention was dissolved in dimethylsulfoxide and diluted to double the prescribed concentration in a 96-well microplate using PSY medium to obtain a drug solution. On the other hand, a diluted dimethylsulfoxide solution was prepared using PSY medium for use as an untreated group.
A suspension of liquid-cultured test microorganisms (Pythium aphanidermatum) was mixed with an equal volume of the drug solution and cultured in a dark location at 25° C. Mycelia growth was observed on days 3 to 7 of culturing to determine mycelia growth inhibition rates.

[2] = tested on: Pythium ultimum; assay: Cucumber damping-off (PU) control test; type: in vivo; details: Globisporangium ultimum, 168 h, soil irrigated with 30 ml emulsion at active ingredient concentration of 100 ppm, ratio of healthy seedlings on day 7 after planting vs untreated group
Protocol: 40 ml of sterile soil were placed in plastic cups followed by leveling the surface of the soil. The soil was then irrigated with 30 ml of the aforementioned emulsion of Preparation Example 2 at an active ingredient concentration of 100 ppm. Following irrigation, cucumbers (variety: Sagami Hanjiro) were planted in the soil and covered with 20 ml of contaminated soil (containing Pythium ultimum) from above. The cups were then placed in plastic bags and allowed to stand undisturbed for 3 days in a constant temperature room at 25° C. (dark location […]). Next, the plants were removed from the bags and held in a constant temperature room at 25° C. using a light-dark cycle of 12 hours. On day 7 after planting, the ratios of healthy seedlings were compared between an untreated group and treated group to calculate control effects (control values).

[3] = tested on: tomato late blight pathogen (Phytophthora infestans); assay: whole plant or invertebrate; type: in vivo; details: 96 h, read-out: control value

| Compound | inhibition at 1 ppm [1] | pest or weed control at 100 ppm [2] | melting point | pest or weed control at 100 µg/mL [3] |
| --- | --- | --- | --- | --- |
| Cn1nnnc1/C(=N\OCc1cccc(NC(=O)OCC2COCO2)n1)c1ccccc1 (centres unmarked) [c-4] | ≥ 50% | ≥ 50% | 104 to 105 °C | ≥ 70% |
| CCOC(C)(OCC)C(=O)Nc1cccc(CO/N=C(/c2ccccc2)c2nnnn2C)n1.Cl [a-33] | ≥ 50% | – | 70 to 73 °C | – |
| Cn1nnnc1/C(=N\OCc1cccc(NC(=O)CC2OCCCO2)n1)c1ccccc1 [a-14] | ≥ 50% | ≥ 50% | 107 to 108 °C | ≥ 70% |
| COC(C)(C)C(=O)Nc1cccc(CO/N=C(/c2ccccc2)c2nnnn2C)n1 [b-6] | ≥ 50% | – | 104 to 105 °C | – |
| COCC(C)(C)C(=O)Nc1cccc(CO/N=C(/c2ccccc2)c2nnnn2C)n1 [b-8] | ≥ 50% | ≥ 50% | 60 to 61 °C | – |
| COC(OC)C(=O)Nc1cccc(CO/N=C(/c2ccccc2)c2nnnn2C)n1 [a-3] | ≥ 50% | ≥ 50% | 88 to 90 °C | ≥ 70% |
| CCOC(OC(=O)Nc1cccc(CO/N=C(/c2ccccc2)c2nnnn2C)n1)C(F)(F)F (stereo not drawn) [d-1] | ≥ 50% | – | 123 to 124 °C | ≥ 70% |
| COCC(C)C(=O)Nc1cccc(CO/N=C(/c2ccccc2)c2nnnn2C)n1 (centres unmarked) [b-3] | ≥ 50% | ≥ 50% | 66 to 68 °C | – |
| Cn1nnnc1/C(=N\OCc1cccc(NC(=O)C(C)(C)O)n1)c1ccccc1 [b-7] | ≥ 50% | – | 144 to 146 °C | – |
| Cn1nnnc1/C(=N\OCc1cccc(NC(=O)OC2CCOCC2)n1)c1ccccc1 [d-3] | ≥ 50% | – | 72 to 73 °C | ≥ 70% |
| CCOC(CC(=O)Nc1cccc(CO/N=C(/c2ccccc2)c2nnnn2C)n1)OCC [a-6] | ≥ 50% | ≥ 50% | – | ≥ 70% |
| Cn1nnnc1/C(=N\OCc1cccc(NC(=O)OCCC2OCC(C)(C)CO2)n1)c1ccccc1 [c-1] | ≥ 50% | ≥ 50% | – | ≥ 70% |
| COC(CC(=O)Nc1cccc(CO/N=C(/c2ccccc2)c2nnnn2C)n1)OC [a-2, (Z)-(1-methyl-1H-tetrazol-5-yl)phenylmethanone-o-[2-(2,2-dimethoxyethanecarbonylamino)pyridin-6-ylmethyl]oxime] | ≥ 50% | ≥ 50% | – | ≥ 70% |
| CCOCCCOC(=O)Nc1cccc(CO/N=C(/c2ccccc2)c2nnnn2C)n1 [d-15] | ≥ 50% | ≥ 50% | – | ≥ 70% |
| COC(CCC(=O)Nc1cccc(CO/N=C(/c2ccccc2)c2nnnn2C)n1)OC [a-17] | ≥ 50% | ≥ 50% | – | ≥ 70% |
| COCCC(C)(C)C(=O)Nc1cccc(CO/N=C(/c2ccccc2)c2nnnn2C)n1 [b-10] | ≥ 50% | ≥ 50% | 86 to 87 °C | – |
| COCCCC(C)(C)OC(=O)Nc1cccc(CO/N=C(/c2ccccc2)c2nnnn2C)n1 [d-8] | ≥ 50% | ≥ 50% | – | ≥ 70% |
| CCOCCC(C)OC(=O)Nc1cccc(CO/N=C(/c2ccccc2)c2nnnn2C)n1 (stereo not drawn) [d-13] | ≥ 50% | ≥ 50% | – | ≥ 70% |
| Cn1nnnc1/C(=N\OCc1cccc(NC(=O)C2(C)OCCCCO2)n1)c1ccccc1 [a-25] | ≥ 50% | ≥ 50% | – | ≥ 70% |
| Cn1nnnc1/C(=N\OCc1cccc(NC(=O)C2(C)OCCCCCO2)n1)c1ccccc1 [a-27] | ≥ 50% | ≥ 50% | – | ≥ 70% |
| Cn1nnnc1/C(=N\OCc1cccc(NC(=O)C2(C)OCCOCCO2)n1)c1ccccc1 [a-28] | ≥ 50% | ≥ 50% | – | ≥ 70% |
| Cn1nnnc1/C(=N\OCc1cccc(NC(=O)OC2CCOC2)n1)c1ccccc1 (stereo not drawn) [d-4] | – | – | 76 to 78 °C | ≥ 70% |
